These results are taken from the RepoRT retention time repository.

The nature of the data set: HILIC, Waters ACQUITY UPLC BEH Amide, 100 × 2.1 mm, 1.7 µm; A: water + 0.125% formic acid + 10 mM ammonium formate; B: 5% water + 95% acetonitrile + 0.125% formic acid + 10 mM ammonium formate; gradient (min/%B) 0/100 2/100 7.7/70 9.5/40 10.25/30 12.75/100 17/100. As to conditions: stereoisomer not certain.
With `Clc1ccc2c(c1)CCc1cccnc1C2=C1CCNCC1` [Desloratadine], the LC retention time was 4.9 min. As for `CC1CC2C3CCC4=CC(=O)C=CC4(C)C3(F)C(O)CC2(C)C1C(=O)CO` (configuration not stated) [Desoximetasone], the figure is 1.13 min; as for `CS(=O)CCCCC(=NO)SC1OC(CO)C(O)C(O)C1O` (configuration not stated) [Desulfo Glucoraphanin], 6.61 min; as for `CN(C)CCC(c1ccc(Br)cc1)c1ccccn1` (configuration not stated) [Dexbrompheniramine], 2.56 min. Take `COc1ccc2c(c1)C13CCCCC1C(C2)N(C)CC3` (configuration not stated) [Dextromethorphan]: the LC retention time stood at 2.64 min. Take `CN1CCC23CCCCC2C1Cc1ccc(O)cc13` (configuration not stated) [Dextrorphan]: the LC retention time is 3.87 min. The same measure for `CN1C(=O)CN=C(c2ccccc2)c2cc(Cl)ccc21` [Diazepam]: 1.1 min. As for `CC1=NS(=O)(=O)c2cc(Cl)ccc2N1` [Diazoxide], the figure is 1.09 min; as for `O=C(O)Cc1ccccc1Nc1c(Cl)cccc1Cl` [Diclofenac], 1.08 min; as for `COc1cc(CNC(=O)CCCCCCC(C)C)ccc1O` [Dihydrocapsaicin], 1.07 min. As for `CCCCCCCCCCCCCCCC(O)C(N)CO` (configuration not stated) [Dihydrosphingosine], the figure is 4.47 min; as for `CC(CO)CCNc1ncnc2nc[nH]c12` (configuration not stated) [Dihydrozeatin], 2.99 min; as for `COC(=O)c1ccccc1C(=O)OC` [Dimethyl phthalate], 1.04 min. For the compound `CCCCCCCCOC(=O)c1ccccc1C(=O)OCCCCCCCC` [Dioctyl Phthalate], the LC retention time was 0.96 min. As for `CN(C)CCOC(c1ccccc1)c1ccccc1` [Diphenhydramine], the figure is 2.15 min.

`CCOC(=O)C1(c2ccccc2)CCN(CCC(C#N)(c2ccccc2)c2ccccc2)CC1` [Diphenoxylate]: the LC retention time is 1.41 min. As for `O=c1c(-c2ccccc2)c1-c1ccccc1` [Diphenylcyclopropenone], the figure is 1.01 min. The same measure for `CCN(CC)C(=S)SSC(=S)N(CC)CC` [Disulfiram]: 0.93 min; for `CC(=O)OC12COC1CC(O)C1(C)C(=O)C(O)C3=C(C)C(OC(=O)C(O)C(NC(=O)OC(C)(C)C)c4ccccc4)CC(O)(C(OC(=O)c4ccccc4)C21)C3(C)C` (configuration not stated) [Docetaxel]: 1.34 min. As for `CN(CCOc1ccc(NS(C)(=O)=O)cc1)CCc1ccc(NS(C)(=O)=O)cc1` [Dofetilide], the figure is 3.38 min; as for `O=C(OC1CC2CC3CC(C1)N2CC3=O)c1c[nH]c2ccccc12` (configuration not stated) [Dolasetron], 1.9 min; as for `COc1cc2c(cc1OC)C(=O)C(CC1CCN(Cc3ccccc3)CC1)C2` (configuration not stated) [Donepezil], 2.44 min.

For `NCCc1ccc(O)c(O)c1` [Dopamine], the LC retention time worked out at 6.4 min. The same measure for `CCN1CC(CCN2CCOCC2)C(c2ccccc2)(c2ccccc2)C1=O` (configuration not stated) [Doxapram]: 1.64 min; for `CN(C)CCC=C1c2ccccc2COc2ccccc21` [Doxepin]: 2.26 min; for `CN(C)CCOC(C)(c1ccccc1)c1ccccn1` (configuration not stated) [Doxylamine]: 2.45 min. As for `O=C(CCCN1CC=C(n2c(=O)[nH]c3ccccc32)CC1)c1ccc(F)cc1` [Droperidol], the figure is 3.48 min; as for `CNCCC(Oc1cccc2ccccc12)c1cccs1` (configuration not stated) [Duloxetine], 2.6 min. As for `CC=C1N(C)C(C)CC1(c1ccccc1)c1ccccc1` (configuration not stated) [EDDP], the figure is 1.9 min; as for `COC(=O)C1C(O)CC2CCC1N2C` (configuration not stated) [Ecgonine methylester], 4.18 min; as for `CN1C2CCC1C(C(=O)O)C(O)C2` (configuration not stated) [Ecgonine], 7.61 min. As to `O=C1Nc2ccc(Cl)cc2C(C#CC2CC2)(C(F)(F)F)O1` (configuration not stated) [Efavirenz], the LC retention time is 0.98 min.
